Assay [1] concerns the target T1, KRAS G12C (Homo sapiens, UniProt P01116, G12C). The assay can be described thus: KRAS_G12C GDP-GTP exchange assay (bodipy-GDP/GppNHp, SOS1). The format is biochemical. The settings on record: bodipy-loaded KRAS G12C, 2 hours pre-incubation, 2 hours exchange; read-out: G12C_exchange (KRAS_G12C exchange assay IC50). The method, then: The inhibitor potency of the exemplified compounds was determined in a fluorescence based guanine nucleotide exchange assay, which measures the exchange of bodipy-GDP (fluorescently labeled GDP) for GppNHp (Non-hydrolyzable GTP analog) to generate the active state of KRAS in the presence of SOS1 (guanine nucleotide exchange factor). Inhibitors were serially diluted in DMSO and a volume of 0.1 μL was transferred to the wells of a black low volume 384-well plate. 5 μL/well volume of bodipy-loaded KRAS G12C diluted to 5 nM in assay buffer (25 mM Hepes pH 7.5, 50 mM NaCl, 10 mM MgCl2 and 0.01% Brij-35) was added to the plate and pre-incubated with inhibitor for 2 hours at ambient temperature. Appropriate controls (enzyme with no inhibitor or with a G12C inhibitor (AMG-510)) were included on the plate. The exchange was initiated by the addition of a 5 μL/well volume containing 1 mM GppNHp and 300 nM SOS1 in assay buffer. The 10 μL/well reaction concentration of the bodipy-loaded KRAS G12C, GppNHp, and SOS1 were 2.5 nM, 500 uM, and 150 nM, respectively. The reaction plates were incubated at ambient temperature for 2 hours, a time estimated for complete GDP-GTP exchange in the absence of inhibitor. Internal compounds with confirmed binding were used as positive controls in the assay plates. Fluorescence intensities were measured on a PheraStar plate reader instrument (BMG Labtech) with excitation at 485 nm and emission at 520 nm.
Either GraphPad prism or XLfit was used to analyze the data. The IC50 values were derived by fitting the data to a four parameter logistic equation producing a sigmoidal dose-response curve with a variable Hill coefficient. Prism equation: Y=Bottom+(Top−Bottom)/(1+10^((Log IC50−X)*Hill slope)); XLfit equation: Y=(A+((B−A)/(1+((X/C)^D)))) where X is the logarithm of inhibitor concentration and Y is the response.

In assay [2] the target is T1, KRAS G12C. Nature of the assay: KRAS_G12C cellular pERK HTRF assay. Further details: host or cells: MIA PaCa-2. The settings on record: MIA PaCa-2 (KRAS G12C), 4 hours; read-out: G12C_pERK (KRAS_G12C pERK assay IC50). Format: cell-based. The method, then: MIA PaCa-2 (KRAS G12C; ATCC® CRL-1420), A427 (KRAS G12D; ATCC® HTB53), HPAF-II (KRAS G12D; ATCC® CRL-1997) and NCI-H838 (KRAS WT; ATCC® CRL-5844) cells are purchased from ATCC and maintained in RPMI 1640 media supplemented with 10% FBS (Gibco/Life Technologies). The cells are plated at 5000 cells per well (8 uL) into Greiner 384-well low volume, flat-bottom, tissue culture treated white plates and incubated overnight at 37° C., 5% CO2. The next morning, test compound stock solutions are diluted in media at 3x the final concentration, and 4 uL are added to the cells. The plate is mixed by gentle rotation for 30 seconds (250 rpm) at room temperature. The cells are incubated with the KRAS G12C and G12D compounds for 4 hours or 2 hours respectively at 37° C., 5% CO2.
4 uL of 4x lysis buffer with blocking reagent (1:25) (Cisbio) are added to each well and plates are rotated gently (300 rpm) for 30 minutes at room temperature. 4 uL per well of Cisbio anti Phospho-ERK 1/2 d2 is mixed with anti Phospho-ERK 1/2 Cryptate (1:1) are added to each well, mixed by rotation and incubated overnight in the dark at room temperature. Plates are read on the Pherastar plate reader at 665 nm and 620 nm wavelengths. IC50 determination is performed by fitting the curve of inhibitor percent inhibition versus the log of the inhibitor concentration using the GraphPad Prism 7 software.

T1 sequence (P01116 1-188 isoform P01116-2 G12C): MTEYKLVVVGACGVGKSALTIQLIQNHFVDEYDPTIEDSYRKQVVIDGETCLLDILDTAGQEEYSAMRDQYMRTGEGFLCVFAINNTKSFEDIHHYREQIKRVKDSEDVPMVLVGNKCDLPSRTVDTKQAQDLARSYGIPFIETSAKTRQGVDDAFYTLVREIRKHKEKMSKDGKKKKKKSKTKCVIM

Take `C=C(F)C(=O)N1CC[C@H](n2nnc3c(N4CC(N(C)CC)C4)nc4c(F)c(-c5n[nH]c6cc(C)c(C)cc56)ncc4c32)C[C@H]1CC#N` [Example 13, 2-((2S,4S)-4-(7-(5,6-dimethyl-1H-indazol-3-yl)-4-(3-(ethyl(methyl)amino)azetidin-1-yl)-6-fluoro-1H-[1,2,3]triazolo[4,5-c][1,6]naphthyridin-1-yl)-1-(2-fluoroacryloyl)piperidin-2-yl)acetonitrile]: on KRAS G12C [1], the 50% inhibitory concentration (IC50) (commonly the concentration that inhibits the measured activity by half) is at most 100 nM.

With `CCN(C)C1CN(c2nc3c(F)c(-c4ccc(F)c5cccnc45)ncc3c3c2nnn3[C@H]2CCN(C(=O)/C=C/CF)[C@H](CC#N)C2)C1` [Example 12, 2-((2S,4S)-4-(4-(3-(ethyl(methyl)amino)azetidin-1-yl)-6-fluoro-7-(5-fluoroquinolin-8-yl)-1H-[1,2,3]triazolo[4,5-c][1,6]naphthyridin-1-yl)-1-((E)-4-fluorobut-2-enoyl)piperidin-2-yl)acetonitrile], the IC50 on KRAS G12C [1] was at most 100 nM; at KRAS G12C [2], 100 to 1000 nM.

Take `CCN(C)C1CN(c2nc3c(F)c(-c4cccc5cccc(C#N)c45)ncc3c3c2nnn3[C@H]2CCN(C(=O)/C=C/CF)[C@H](CC#N)C2)C1` [Example 15, 8-(1-((2S,4S)-2-(cyanomethyl)-1-((E)-4-fluorobut-2-enoyl)piperidin-4-yl)-4-(3-(ethyl(methyl)amino)azetidin-1-yl)-6-fluoro-1H-[1,2,3]triazolo[4,5-c][1,6]naphthyridin-7-yl)-1-naphthonitrile]: the IC50 on KRAS G12C [1] and on KRAS G12C [2] was at most 100 nM throughout.

As for `C=C(F)C(=O)N1CC[C@H](n2nnc3c(N4CC(N(C)CC)C4)nc4c(F)c(-c5cccc6cccc(C#N)c56)ncc4c32)C[C@H]1CC#N` [Example 14, 8-(1-((2S,4S)-2-(cyanomethyl)-1-(2-fluoroacryloyl)piperidin-4-yl)-4-(3-(ethyl(methyl)amino)azetidin-1-yl)-6-fluoro-1H-[1,2,3]triazolo[4,5-c][1,6]naphthyridin-7-yl)-1-naphthonitrile], the IC50 at KRAS G12C [1] was at most 100 nM; at KRAS G12C [2], 100 to 1000 nM.

The record behind these values is patent US12441742B2, “Naphthyridine compounds as inhibitors of KRAS” (Incyte Corporation, priority 2021, dated 2025).
